Source: patent US20250362286A1, “SCREENING MODELS AND METHODS OF CANCER TREATMENT” (The Regents of the University of California, priority 2022, published 2025)
Entries after “also recorded” stand apart in the source; their conditions may differ.

Legend:
[1] = system: MDAs and MDA-231-BrM2 (TNBC), Py8119 (Breast Cancer), HT-1080 (fibrosarcoma), Sk-HEP-1 (liver cancer), and R40P (PDAC) cells; assay: phenotype screen for anti-invasive activity in the HD Col1 model system; format: cell-based; conditions: HD Col1, 7 days of culture; all six cell lines
Text: In this example, it was explored whether isoxazole derivatives could similarly induce differentiation of CSCs occupying the clinically relevant notch-activated state conferred by the HD Col1 model system of Example 1 (Table 1, FIG. 1). […] FIG. 2 includes brightfield microscopy images of cancer cell lines at 7 days of culture in HD Col1 treated with vehicle or ISX9 (scale bar=250 μm).

[2] = system: Notch pathway genes; assay: RT-qPCR gene expression analysis of Notch target genes in MDAs; format: cell-based; conditions: 24h in HD Col1, vs vehicle
Text: Also assessed was how the Notch pathway responded to ISX9 treatment. […] FIG. 3A depicts the results of a RT-qPCR gene expression analysis of Notch target genes in vehicle and Isx9 treated MDAs.

[3] = system: Notch1; assay: immunofluorescence staining of cleaved intracellular domain of Notch1 in MDAs; format: cell-based; conditions: vs vehicle, even in 2D culture
Text: FIG. 3B depicts immunofluorescence staining of cell nuclei and cleaved intracellular domain of Notch1 in vehicle and Isx9 treated MDAs.

[4] = system: MDA-MB-231s; assay: CD24 mRNA expression in 2D (differentiation screening); format: cell-based
Method: FIG. 3H depicts relative CD24 mRNA expression. CD24 expression was an early indicator of response to ISX9 in 2D across several TNBC cell lines. Treatment screening of several different TNBC cell lines with ISX9 in 2D for 48h yielded four responders, as determined by CD24 mRNA expression (FIG. 3H).
These analogs were screened for their potential to differentiate MDA-MB-231s, yielding at least one new hit, CR-1 (˜98% similarity), which induced a ˜6-fold upregulation of CD24 at a concentration of 200 μM at 48h in 2D (FIG. 6).

[5] = system: LL/2 lung cancer cells; assay: western blot of EMT transcription factor TWIST1; format: cell-based; conditions: HD Col1, 7 days
Text: FIG. 4E depicts a western blot analysis of EMT transcription factor TWIST1 in LL/2 lung cancer cells treated with vehicle or ISX9 for 7 days in 2D TC or HD Col1.

[6] = system: MDAs; assay: CytoTox-Fluor cytotoxicity assay; format: cell-based; conditions: 2D, 1-40 μM
Text: (§1) FIG. 7C depicts the metabolic activity, cytotoxicity, and relative CD24 expression dose-response to ISX9.

[7] = system: MDAs; assay: CellTiter-Fluor metabolic activity assay; format: cell-based; conditions: 2D, 10-40 μM
Text: as §1

[8] = system: PA-14-13 PDOs; assay: RT-qPCR of CD24 and CDH1 expression in PDOs; format: cell-based; conditions: 20 μM, 48 h
Method: (§2) As a first step towards assessing the efficacy of ISX9 to differentiate patient-derived tumor cells, PDOs from the PIM025 (“hybrid epithelial” EMT status) and PA14-13 (“hybrid mesenchymal” EMT status) TNBC PDX tumors were produced and treated with 20 μM ISX9 for 48 h. […] FIG. 8D and FIG. 8E depict RT-qPCR of CD24 and CDH1 expression in PIM025 PDOs and PA-14-13 PDOs, respectively.

[9] = system: PIM025 PDOs; assay: RT-qPCR of CD24 and CDH1 expression in PDOs; format: cell-based; conditions: 20 μM, 48 h
Method: as §2

[10] = system: PA-14-13 PDOs; assay: FACS analysis of CD44+/CD24- CSCs and CDH1+ cells in PDOs; format: cell-based
Text: (§3) These figures depict flow cytometry analysis of CD44*/CD24 CSC in (FIG. 8F and FIG. 8G) PIM025 PDOs and (FIG. 8H and FIG. 8I) PA-14-13 PDOs treated with vehicle or ISX9.
(§4) FIG. 8J and FIG. 8K depict a flow cytometry analysis of CDH1^+ cells in PIM025 PDOs treated with vehicle or ISX9. FIG. 8L and FIG. 8M depict a flow cytometry analysis of CDH1^+ cells in PA-14-13 PDOs treated with vehicle or ISX9.

[11] = system: PIM-025 PDOs; assay: as above; format: cell-based
Text: as §3, §4

[12] = system: PA-14-13 PDOs; assay: sensitivity of PDOs to doxorubicin after pre-treatment; format: cell-based; conditions: pre-treatment 5d, then doxorubicin 3d
Method: (§5) To determine if these effects would translate to increased sensitivity to chemotherapy, both sets of PDOs were treated with ISX9 for 5d, followed by doxorubicin for 3d. […] FIG. 8P and FIG. 8Q depicts results of tests showing that PIM-025 PDOs and PA-14-13 PDOs, respectively, pre-treated with ISX9 acquire increased sensitivity to doxorubicin.

[13] = system: PIM-025 PDOs; assay: as above; format: cell-based; conditions: pre-treatment 5d, then doxorubicin 3d
Method: as §5

[14] = system: PA-14-13; assay: western blot of acetylated H3/H4 in PDOs; format: cell-based; conditions: patient-derived organoid model
Text: (§6) Also identified was the fact that a similar increase in acetylation was found in patient-derived organoid models. […] Acetylation and deactylation of histones H3 and H4 are typically orchestrated by Histone Acetyltransferases (HATs), including the several HAT subfamilies, as well as HDACs (see, e.g., Marmorstein, R. et al. Cold Spring Harb. Perspect. Biol. 6, a018762 (2014)). Not wishing to be bound by any particular theory, Isx9 may bind directly to HATs and/or HDACs in order to activate histone acetylation and drive induction of MET and/or CSC differentiation.

[15] = system: PIM025; assay: western blot of acetylated H3/H4 in PDOs; format: cell-based; conditions: patient-derived organoid model
Text: as §6

[16] = once daily 16 mg/kg ip for several weeks, cited from earlier work

## O=C(NC1CC1)c1cc(-c2cccs2)on1 [ISX9, Isoxazole 9]
[1]
  invasive capability: significant abrogation of the invasive capability
[2]
  expression of Notch pathway genes: significantly increased
[3]
  localization of activated Notch1 (cleaved intracellular domain): strong nucleolar localization
[4]; 48h
  CD24 mRNA expression (FC): ~31.6
[4]; concentration range 1-40 μM
  CD24 mRNA dose-response: upregulation of CD24 mRNA
[5]
  TWIST1 protein expression (WB): reduced TWIST1 protein expression
[6]
  cytotoxicity: without any observable increase in cytotoxicity
[7]
  metabolic activity: decrease in metabolic activity
[8]
  upregulation of CD24: ~1,080 fold
  upregulation of CDH1: ~41 fold
[9]
  CDH1 mRNA expression: slight increase
  upregulation of CD24 mRNA transcription: 1.5 fold
[10]; after 6 days of treatment
  CD44+/CD24- CSCs (FACS): reduction in CD44+/CD24− CSCs
[10]; vs vehicle
  CDH1+ cells (FACS): enrichment in CDH1^+ cells
[11]; after 6 days of treatment
  CD44+/CD24- CSCs (FACS): reduction in CD44+/CD24− CSCs
[11]; vs vehicle
  CDH1+ cells (FACS): slight reduction in CDH1^+ cells
[12]
  increase in sensitivity to doxorubicin: 85.8 fold
[13]
  increase in sensitivity to doxorubicin: 2.9 fold
[14]
  acetylated H3/H4 expression: large increase in acetylated H3/H4 expression
[15]
  acetylated H3/H4 expression: slight increase in acetylated H3/H4 expression
[16]; 16 mg/kg
  tolerability (signs or symptoms): well-tolerated; also recorded: no signs or symptoms of lethargy, weight loss or decreased appetite
[16]
  serum biochemistry and hematology profiles: normal
